Tests used:
LOX IMVI = experiment: Growth inhibition of human LOXIMVI cells assessed as cell growth at 1 uM incubated for 48 hrs by sulforhodamine B assay relative to control; format: functional; details: read-out: Activity
NCI-H460 [1] = experiment: Growth inhibition of human NCI-H460 cells incubated for 48 hrs by sulforhodamine B assay; format: functional, cell-based; details: NCI-H460, 48 h
PC-3 = experiment: Growth inhibition of human PC3 cells incubated for 48 hrs by sulforhodamine B assay; format: functional, cell-based; details: PC-3, 48 h
HCC 2998 = experiment: Growth inhibition of human HCC2998 cells assessed as cell growth at 100 uM incubated for 48 hrs by sulforhodamine B assay relative to control; format: functional; details: HCC 2998, 48 h, read-out: Activity
A498 = experiment: Growth inhibition of human A498 cells assessed as cell growth at 100 uM incubated for 48 hrs by sulforhodamine B assay relative to control; format: functional; details: A498, 48 h, read-out: Activity
MCF7 = experiment: Growth inhibition of human MCF7 cells assessed as cell growth at 1 uM incubated for 48 hrs by sulforhodamine B assay relative to control; format: functional; details: MCF7, 48 h, read-out: Activity
KM12 = experiment: Growth inhibition of human KM12 cells incubated for 48 hrs by sulforhodamine B assay; format: functional, cell-based; details: KM12, 48 h
SR = experiment: Growth inhibition of human SR cells assessed as cell growth at 100 uM incubated for 48 hrs by sulforhodamine B assay relative to control; format: functional; details: read-out: Activity
HL-60(TB) = experiment: Growth inhibition of human HL-60(TB) cells assessed as cell growth at 0.1 uM incubated for 48 hrs by sulforhodamine B assay relative to control; format: functional; details: HL-60, 48 h, read-out: Activity
CCRF-CEM = experiment: Growth inhibition of human CCRF-CEM cells incubated for 48 hrs by sulforhodamine B assay; format: functional, cell-based
Malme-3M = experiment: Growth inhibition of human MALME-3M cells incubated for 48 hrs by sulforhodamine B assay; format: functional, cell-based
MDA-MB-231 = experiment: Growth inhibition of human MDA-MB-231 cells assessed as cell growth at 0.1 uM incubated for 48 hrs by sulforhodamine B assay relative to control; format: functional; details: MDA-MB-231, 48 h, read-out: Activity
UACC-62 [2] = experiment: Growth inhibition of human UACC62 cells assessed as cell growth at 100 uM incubated for 48 hrs by sulforhodamine B assay relative to control; format: functional; details: UACC-62, 48 h, read-out: Activity
SNB-75 = experiment: Growth inhibition of human SNB75 cells assessed as cell growth at 1 uM incubated for 48 hrs by sulforhodamine B assay relative to control; format: functional; details: SNB-75, 48 h, read-out: Activity
HT-29 = experiment: Growth inhibition of human HT-29 cells assessed as cell growth at 0.1 uM incubated for 48 hrs by sulforhodamine B assay relative to control; format: functional; details: HT-29, 48 h, read-out: Activity
OVCAR-4 [3] = experiment: Growth inhibition of human OVCAR4 cells assessed as cell growth at 0.01 uM incubated for 48 hrs by sulforhodamine B assay relative to control; format: functional; details: OVCAR-4, 48 h, read-out: Activity
HCT-15 = experiment: Growth inhibition of human HCT15 cells assessed as cell growth at 100 uM incubated for 48 hrs by sulforhodamine B assay relative to control; format: functional; details: HCT-15, 48 h, read-out: Activity
NCI-H226 = experiment: Growth inhibition of human NCI-H226 cells assessed as cell growth at 0.1 uM incubated for 48 hrs by sulforhodamine B assay relative to control; format: functional; details: NCI-H226, 48 h, read-out: Activity
MOLT-4 [4] = experiment: Growth inhibition of human MOLT4 cells assessed as cell growth at 100 uM incubated for 48 hrs by sulforhodamine B assay relative to control; format: functional; details: MOLT-4, 48 h, read-out: Activity
OVCAR-4 [5] = experiment: Growth inhibition of human OVCAR4 cells assessed as cell growth at 1 uM incubated for 48 hrs by sulforhodamine B assay relative to control; format: functional; details: OVCAR-4, 48 h, read-out: Activity
K562 = experiment: Growth inhibition of human K562 cells incubated for 48 hrs by sulforhodamine B assay; format: functional, cell-based; details: K562, 48 h
NCI-H460 [6] = experiment: Growth inhibition of human NCI-H460 cells assessed as cell growth at 100 uM incubated for 48 hrs by sulforhodamine B assay relative to control; format: functional; details: NCI-H460, 48 h, read-out: Activity
NCI-H522 = experiment: Growth inhibition of human NCI-H522 cells assessed as cell growth at 0.1 uM incubated for 48 hrs by sulforhodamine B assay relative to control; format: functional; details: NCI-H522, 48 h, read-out: Activity
MOLT-4 [7] = experiment: Growth inhibition of human MOLT4 cells assessed as cell growth at 1 uM incubated for 48 hrs by sulforhodamine B assay relative to control; format: functional; details: MOLT-4, 48 h, read-out: Activity
UACC-62 [8] = experiment: Growth inhibition of human UACC62 cells incubated for 48 hrs by sulforhodamine B assay; format: functional, cell-based; details: UACC-62, 48 h
U-251 = experiment: Growth inhibition of human U251 cells assessed as cell growth at 1 uM incubated for 48 hrs by sulforhodamine B assay relative to control; format: functional; details: U-251, 48 h, read-out: Activity
MDA-MB-468 = experiment: Growth inhibition of human MDA-MB-468 cells assessed as cell growth at 0.1 uM incubated for 48 hrs by sulforhodamine B assay relative to control; format: functional; details: MDA-MB-468, 48 h, read-out: Activity
A549 = experiment: Growth inhibition of human A549/ATCC cells assessed as cell growth at 1 uM incubated for 48 hrs by sulforhodamine B assay relative to control; format: functional; details: A549, 48 h, read-out: Activity
M14 = experiment: Growth inhibition of human M14 cells assessed as cell growth at 0.1 uM incubated for 48 hrs by sulforhodamine B assay relative to control; format: functional; details: M14, 48 h, read-out: Activity
[9] = read-out: LC50 (the source's name)
[10] = read-out: pLC50 (the source's name) (converted)

## O=C(Nc1cccc(-n2cc(-c3ccncc3)c(-c3cc(O)cc(Cl)c3)n2)c1)c1ccc(N2CCOCC2)c(C(F)(F)F)c1
LOX IMVI
  growth at 1 µM: 51%
NCI-H460 [1]; read-out: GI50
  GI50: 0.797 µM
NCI-H460 [1]; [9]
  CC50: > 100 µM
NCI-H460 [1]; read-out: TGI
  TGI: 34.8 µM
NCI-H460 [1]; read-out: pGI50 (converted)
  GI50: 0.794 µM
NCI-H460 [1]; [10]
  CC50: > 100 µM
NCI-H460 [1]; read-out: pTGI (converted)
  TGI: 3.55 µM
PC-3
  IC50: 1.09 µM
PC-3; read-out: GI50
  GI50: 1.09 µM
PC-3; [9]
  CC50: > 100 µM
PC-3; read-out: TGI
  TGI: 45.6 µM
PC-3; read-out: pGI50 (converted)
  GI50: 1.1 µM
PC-3; [10]
  CC50: > 100 µM
PC-3; read-out: pTGI (converted)
  TGI: 45.7 µM
HCC 2998
  growth at 100 µM: -28%
A498
  growth at 100 µM: -12%
MCF7
  growth at 1 µM: 82%
KM12; read-out: GI50
  GI50: 1.21 µM
KM12; [9]
  CC50: > 100 µM
KM12; read-out: TGI
  TGI: > 100 µM
KM12; read-out: pGI50 (converted)
  GI50: 1.2 µM
KM12; [10]
  CC50: > 100 µM
KM12; read-out: pTGI (converted)
  TGI: > 100 µM
SR
  growth at 100 µM: -25%
HL-60(TB)
  growth at 0.1 µM: 114%
CCRF-CEM; read-out: GI50
  GI50: 0.543 µM
CCRF-CEM; [9]
  CC50: > 100 µM
CCRF-CEM; read-out: TGI
  TGI: > 100 µM
CCRF-CEM; read-out: pGI50 (converted)
  GI50: 0.562 µM
CCRF-CEM; [10]
  CC50: > 100 µM
CCRF-CEM; read-out: pTGI (converted)
  TGI: > 100 µM
Malme-3M; read-out: GI50
  GI50: 1.38 µM
Malme-3M; [9]
  CC50: > 100 µM
Malme-3M; read-out: TGI
  TGI: 51.9 µM
Malme-3M; read-out: pGI50 (converted)
  GI50: 1.38 µM
Malme-3M; [10]
  CC50: > 100 µM
Malme-3M; read-out: pTGI (converted)
  TGI: 5.25 µM
MDA-MB-231
  growth at 0.1 µM: 92%
UACC-62 [2]
  growth at 100 µM: -31%
SNB-75
  growth at 1 µM: 45%
HT-29
  growth at 0.1 µM: 95%
OVCAR-4 [3]
  growth at 0.01 µM: 100%
HCT-15
  growth at 100 µM: -54%
NCI-H226
  growth at 0.1 µM: 93%
MOLT-4 [4]
  growth at 100 µM: -20%
OVCAR-4 [5]
  growth at 1 µM: 99%
K562; read-out: GI50
  GI50: 0.554 µM
K562; read-out: LC50
  LC50: > 100 µM
K562; read-out: TGI
  TGI: 40.8 µM
K562; read-out: pGI50 (converted)
  GI50: 0.562 µM
K562; read-out: pLC50 (converted)
  LC50: > 100 µM
K562; read-out: pTGI (converted)
  TGI: 4.9 µM
NCI-H460 [6]
  growth at 100 µM: -47%
NCI-H522
  growth at 0.1 µM: 90%
MOLT-4 [7]
  growth at 1 µM: 54%
UACC-62 [8]
  IC50: 1.72 µM
UACC-62 [8]; read-out: GI50
  GI50: 1.72 µM
UACC-62 [8]; [9]
  CC50: > 100 µM
UACC-62 [8]; read-out: TGI
  TGI: 93.8 µM
UACC-62 [8]; read-out: pGI50 (converted)
  GI50: 1.74 µM
UACC-62 [8]; [10]
  CC50: > 100 µM
UACC-62 [8]; read-out: pTGI (converted)
  TGI: 9.33 µM
U-251
  growth at 1 µM: 51%
MDA-MB-468
  growth at 0.1 µM: 54%
A549
  growth at 1 µM: 52%
M14
  growth at 0.1 µM: 91%
